Compound in one experiment: NC(=O)CCCCC1CCSS1 [lipoamide]
The experiment in a line: thermal stability z-score vs DMSO; higher = more thermally stabilized by treatment. As to conditions: HeLa, lipoamide concentration 100 µM. The method, then: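 Cellular thermal proteome profiling in HeLa cells. Cells were treated with 100 µM lipoamide for 1 h, with or without 1 mM arsenate for a further 1 h, then heated to ten temperatures (37-66.3 °C), and soluble protein was quantified by TMT mass spectrometry relative to 0.1% DMSO controls. The thermal stability score (sum of log2 fold changes minus the abundance score) was transformed to a z-score; mean of n = 3 experiments.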

Compound in another experiment: O=[As]([O-])(O)O.[K+] [potassium arsenate]
Described as above. The following applies: HeLa; arsenate concentration 1 mM. The method, then:
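Cellular thermal proteome profiling in HeLa cells treated with 1 mM arsenate for 1 h (DMSO pretreatment), heated to ten temperatures (37-66.3 °C). Soluble protein was quantified by TMT mass spectrometry relative to DMSO controls; the thermal stability score was transformed to a z-score; mean of n = 3 experiments.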

[1] abbreviates: arsenate co-treatment: 1 mM arsenate 1 h.
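Also: each temperature applied for 3 min, abundance score taken as mean log2 fold change at the two lowest temperatures, z-score obtained by mean subtraction and division by SD.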

Sequence of UniProt Q96CQ1 (Q96CQ1 whole entry): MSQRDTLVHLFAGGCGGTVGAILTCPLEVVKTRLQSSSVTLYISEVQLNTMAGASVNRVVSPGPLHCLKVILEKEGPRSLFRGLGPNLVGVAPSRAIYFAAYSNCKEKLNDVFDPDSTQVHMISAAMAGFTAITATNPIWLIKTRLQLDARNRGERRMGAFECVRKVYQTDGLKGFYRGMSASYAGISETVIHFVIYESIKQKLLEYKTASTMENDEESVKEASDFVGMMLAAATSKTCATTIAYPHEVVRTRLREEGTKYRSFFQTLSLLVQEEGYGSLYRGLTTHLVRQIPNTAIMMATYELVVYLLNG
Sequence of UniProt Q96A46 (Q96A46 whole entry): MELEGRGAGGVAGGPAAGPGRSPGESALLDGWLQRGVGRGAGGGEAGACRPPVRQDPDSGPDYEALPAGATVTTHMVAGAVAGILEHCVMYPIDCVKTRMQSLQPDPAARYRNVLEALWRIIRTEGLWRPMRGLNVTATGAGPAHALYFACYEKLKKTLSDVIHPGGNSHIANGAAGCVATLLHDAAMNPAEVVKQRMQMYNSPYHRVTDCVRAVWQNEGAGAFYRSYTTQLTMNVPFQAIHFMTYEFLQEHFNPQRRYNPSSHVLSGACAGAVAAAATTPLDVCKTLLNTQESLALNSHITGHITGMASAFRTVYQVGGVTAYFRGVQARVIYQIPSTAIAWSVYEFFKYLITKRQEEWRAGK
Sequence of UniProt Q9H2D1 (Q9H2D1 whole entry): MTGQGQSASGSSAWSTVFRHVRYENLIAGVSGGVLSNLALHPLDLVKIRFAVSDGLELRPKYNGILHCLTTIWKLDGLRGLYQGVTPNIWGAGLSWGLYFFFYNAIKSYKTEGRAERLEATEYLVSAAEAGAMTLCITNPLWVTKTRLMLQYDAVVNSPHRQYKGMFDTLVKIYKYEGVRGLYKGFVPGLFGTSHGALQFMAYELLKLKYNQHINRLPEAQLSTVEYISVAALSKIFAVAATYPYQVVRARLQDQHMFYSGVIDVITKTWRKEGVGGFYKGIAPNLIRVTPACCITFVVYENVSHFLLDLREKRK
Sequence of UniProt Q96AG3 (Q96AG3 whole entry): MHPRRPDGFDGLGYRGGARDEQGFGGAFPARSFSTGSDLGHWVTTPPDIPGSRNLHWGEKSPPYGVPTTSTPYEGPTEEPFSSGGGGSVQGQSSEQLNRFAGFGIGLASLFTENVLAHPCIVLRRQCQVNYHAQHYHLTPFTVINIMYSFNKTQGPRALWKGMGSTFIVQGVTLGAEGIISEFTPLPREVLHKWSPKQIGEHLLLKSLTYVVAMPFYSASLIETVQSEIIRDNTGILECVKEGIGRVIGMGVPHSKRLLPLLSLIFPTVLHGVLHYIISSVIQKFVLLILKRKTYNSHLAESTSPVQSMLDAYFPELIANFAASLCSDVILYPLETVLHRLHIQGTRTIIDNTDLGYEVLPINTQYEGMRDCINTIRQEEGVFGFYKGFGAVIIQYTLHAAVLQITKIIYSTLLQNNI
Sequence of UniProt Q96QD8 (Q96QD8 whole entry): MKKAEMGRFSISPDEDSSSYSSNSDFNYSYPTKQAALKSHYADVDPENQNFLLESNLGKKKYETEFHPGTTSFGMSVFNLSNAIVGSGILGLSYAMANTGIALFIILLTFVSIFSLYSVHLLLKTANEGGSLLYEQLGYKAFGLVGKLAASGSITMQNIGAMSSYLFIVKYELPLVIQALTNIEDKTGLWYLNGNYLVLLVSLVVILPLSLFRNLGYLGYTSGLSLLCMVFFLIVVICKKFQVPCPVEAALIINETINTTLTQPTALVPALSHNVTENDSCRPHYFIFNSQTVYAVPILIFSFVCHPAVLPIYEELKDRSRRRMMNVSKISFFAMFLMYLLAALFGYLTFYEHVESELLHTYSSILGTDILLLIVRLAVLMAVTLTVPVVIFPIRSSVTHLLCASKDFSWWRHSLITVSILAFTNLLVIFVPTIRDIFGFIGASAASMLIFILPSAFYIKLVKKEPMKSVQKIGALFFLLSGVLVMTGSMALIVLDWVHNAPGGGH
Sequence of UniProt Q8N357 (Q8N357 whole entry): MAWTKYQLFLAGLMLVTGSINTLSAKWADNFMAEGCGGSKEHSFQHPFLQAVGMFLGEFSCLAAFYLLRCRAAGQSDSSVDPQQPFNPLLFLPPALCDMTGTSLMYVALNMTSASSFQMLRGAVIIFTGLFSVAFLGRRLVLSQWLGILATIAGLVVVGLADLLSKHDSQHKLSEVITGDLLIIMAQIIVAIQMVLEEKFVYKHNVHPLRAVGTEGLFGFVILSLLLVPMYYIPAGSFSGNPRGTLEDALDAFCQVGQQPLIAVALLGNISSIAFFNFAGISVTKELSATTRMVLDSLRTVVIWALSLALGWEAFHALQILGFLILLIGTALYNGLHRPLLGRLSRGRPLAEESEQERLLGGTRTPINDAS
Sequence of UniProt O00400 (O00400 whole entry): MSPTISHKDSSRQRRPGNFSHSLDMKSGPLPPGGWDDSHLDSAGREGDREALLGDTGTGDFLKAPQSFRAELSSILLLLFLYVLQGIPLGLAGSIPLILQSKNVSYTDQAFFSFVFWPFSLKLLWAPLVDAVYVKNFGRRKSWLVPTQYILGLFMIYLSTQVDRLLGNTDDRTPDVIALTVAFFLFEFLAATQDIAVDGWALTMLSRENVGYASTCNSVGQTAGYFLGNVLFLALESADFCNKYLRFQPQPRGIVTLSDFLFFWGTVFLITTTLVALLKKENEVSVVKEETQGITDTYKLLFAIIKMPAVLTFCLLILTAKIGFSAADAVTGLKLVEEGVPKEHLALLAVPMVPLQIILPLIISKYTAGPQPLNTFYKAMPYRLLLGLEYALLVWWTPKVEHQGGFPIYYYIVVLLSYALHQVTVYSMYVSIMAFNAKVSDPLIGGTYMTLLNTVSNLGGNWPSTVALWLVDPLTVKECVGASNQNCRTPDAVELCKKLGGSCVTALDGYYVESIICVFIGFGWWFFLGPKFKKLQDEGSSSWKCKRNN
Sequence of UniProt O43826 (O43826 whole entry): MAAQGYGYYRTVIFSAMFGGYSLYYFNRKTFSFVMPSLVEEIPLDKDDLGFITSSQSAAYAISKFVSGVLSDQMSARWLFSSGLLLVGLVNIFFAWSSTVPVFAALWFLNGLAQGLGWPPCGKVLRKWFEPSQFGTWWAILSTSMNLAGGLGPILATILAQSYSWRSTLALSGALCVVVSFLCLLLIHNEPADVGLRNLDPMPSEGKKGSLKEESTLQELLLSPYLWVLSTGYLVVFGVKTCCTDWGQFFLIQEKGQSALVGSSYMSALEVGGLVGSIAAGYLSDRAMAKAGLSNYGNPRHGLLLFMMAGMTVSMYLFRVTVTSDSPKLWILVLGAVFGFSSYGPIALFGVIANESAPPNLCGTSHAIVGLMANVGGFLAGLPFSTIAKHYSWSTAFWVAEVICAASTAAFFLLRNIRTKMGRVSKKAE
Sequence of UniProt Q3KQZ1 (Q3KQZ1 whole entry): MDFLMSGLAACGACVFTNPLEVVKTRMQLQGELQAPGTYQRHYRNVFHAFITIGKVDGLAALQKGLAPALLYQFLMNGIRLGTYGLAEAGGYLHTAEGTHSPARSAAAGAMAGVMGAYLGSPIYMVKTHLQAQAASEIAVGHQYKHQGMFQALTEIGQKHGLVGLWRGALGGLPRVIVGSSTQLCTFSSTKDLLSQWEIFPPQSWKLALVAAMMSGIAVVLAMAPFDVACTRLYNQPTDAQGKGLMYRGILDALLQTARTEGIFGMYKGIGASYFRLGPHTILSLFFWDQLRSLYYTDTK
Sequence of UniProt Q8N8R3 (Q8N8R3 whole entry): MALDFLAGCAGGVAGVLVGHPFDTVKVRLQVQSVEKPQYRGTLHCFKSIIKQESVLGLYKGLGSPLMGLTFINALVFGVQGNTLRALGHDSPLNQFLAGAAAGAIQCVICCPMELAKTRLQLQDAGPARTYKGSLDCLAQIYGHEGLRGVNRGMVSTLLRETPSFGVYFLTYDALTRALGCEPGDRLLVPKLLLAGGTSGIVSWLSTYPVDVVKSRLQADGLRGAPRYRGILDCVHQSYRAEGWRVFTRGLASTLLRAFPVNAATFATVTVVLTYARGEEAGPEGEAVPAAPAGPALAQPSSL
Sequence of UniProt O15431 (O15431 whole entry): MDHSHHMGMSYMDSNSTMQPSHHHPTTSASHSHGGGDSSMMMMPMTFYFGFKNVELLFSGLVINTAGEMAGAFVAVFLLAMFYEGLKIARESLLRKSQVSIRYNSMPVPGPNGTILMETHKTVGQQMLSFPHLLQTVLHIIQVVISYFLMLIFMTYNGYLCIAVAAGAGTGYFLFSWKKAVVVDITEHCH
Sequence of UniProt Q9Y6M5 (Q9Y6M5 whole entry): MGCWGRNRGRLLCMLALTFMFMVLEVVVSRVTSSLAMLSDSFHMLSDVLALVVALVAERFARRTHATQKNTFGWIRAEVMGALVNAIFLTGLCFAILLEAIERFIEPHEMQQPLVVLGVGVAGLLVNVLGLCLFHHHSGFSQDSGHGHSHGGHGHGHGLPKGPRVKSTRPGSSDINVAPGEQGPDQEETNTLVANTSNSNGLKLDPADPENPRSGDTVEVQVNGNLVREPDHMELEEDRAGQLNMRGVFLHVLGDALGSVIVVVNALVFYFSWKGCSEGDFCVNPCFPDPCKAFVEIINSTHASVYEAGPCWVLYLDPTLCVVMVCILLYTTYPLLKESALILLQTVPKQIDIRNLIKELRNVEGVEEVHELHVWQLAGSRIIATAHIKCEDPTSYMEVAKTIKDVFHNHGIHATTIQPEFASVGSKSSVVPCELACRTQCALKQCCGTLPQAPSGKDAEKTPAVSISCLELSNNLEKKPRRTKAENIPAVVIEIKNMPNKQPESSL
Sequence of UniProt Q9NTN3 (Q9NTN3 whole entry, looked up): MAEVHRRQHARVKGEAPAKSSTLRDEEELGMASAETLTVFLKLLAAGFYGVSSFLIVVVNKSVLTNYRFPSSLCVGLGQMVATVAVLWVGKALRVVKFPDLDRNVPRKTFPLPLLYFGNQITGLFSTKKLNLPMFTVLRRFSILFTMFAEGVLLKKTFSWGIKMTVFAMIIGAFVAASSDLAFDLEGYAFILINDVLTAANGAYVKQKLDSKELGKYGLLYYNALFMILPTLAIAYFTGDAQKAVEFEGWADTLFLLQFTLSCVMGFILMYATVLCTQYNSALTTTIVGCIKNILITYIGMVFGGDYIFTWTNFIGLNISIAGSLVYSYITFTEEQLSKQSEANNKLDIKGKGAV

With SLC25A28 (UniProt Q96A46), the values for the thermal stability z-score with lipoamide (setting [1]), with lipoamide (arsenate co-treatment: none) and with potassium arsenate were 0.65, 0.529 and 1.81, respectively.
On the same counts, the results for SLC25A29 (UniProt Q8N8R3) are 0.136, -0.0401 and -0.111.
On the same counts, the results for SLC25A32 (UniProt Q9H2D1) are -0.958, -1.17 and -0.601.
Taken in the same sequence, the figures for SLC25A35 (UniProt Q3KQZ1) were 0.135, -0.276 and 0.172.
Turning to SLC25A36 (UniProt Q96CQ1), the thermal stability z-score with lipoamide (setting [1]) is 0.659; with lipoamide (arsenate co-treatment: none), 0.329; in the experiment with potassium arsenate it was -0.241.
For SLC25A46 (UniProt Q96AG3), the results for the thermal stability z-score in the experiment with lipoamide (setting [1]), with lipoamide (arsenate co-treatment: none) and with potassium arsenate were -0.105, 0.322 and 0.109, respectively.
Taken in the same sequence, the figures for SLC26A6 (UniProt Q9BXS9) were 0.538, 1.4 and 0.375.
Take SLC27A2 (UniProt O14975): the values for the thermal stability z-score in the experiment with lipoamide (setting [1]), in the experiment with lipoamide (arsenate co-treatment: none) and in the experiment with potassium arsenate were -0.257, -0.484 and 0.45, respectively.
Taken in the same sequence, the figures for SLC27A4 (UniProt Q6P1M0) were -0.824, -0.358 and -0.197.
Taken in the same sequence, the figures for SLC29A1 (UniProt Q99808) were 0.272, 0.818 and 0.277.
Consider SLC30A1 (UniProt Q9Y6M5), for which the results for the thermal stability z-score in the experiment with lipoamide (setting [1]), in the experiment with lipoamide (arsenate co-treatment: none) and in the experiment with potassium arsenate were 0.17, 0.0172 and -0.906, respectively.
Taken in the same sequence, the figures for SLC30A5 (UniProt Q8TAD4) were -0.202, -0.453 and -0.849.
With SLC30A7 (UniProt Q8NEW0), the thermal stability z-score was -1.48 with lipoamide (setting [1]), -1.78 in the experiment with lipoamide (arsenate co-treatment: none) and 0.418 in the experiment with potassium arsenate.
Take SLC30A9 (UniProt Q6PML9): the figures for the thermal stability z-score with lipoamide (setting [1]), with lipoamide (arsenate co-treatment: none) and with potassium arsenate were 1.14, 1.13 and 1.17, respectively.
As for SLC31A1 (UniProt O15431), the results for the thermal stability z-score with lipoamide (setting [1]), in the experiment with lipoamide (arsenate co-treatment: none) and with potassium arsenate were 0.126, 0.215 and 0.321, respectively.
Consider SLC33A1 (UniProt O00400), for which the results for the thermal stability z-score in the experiment with lipoamide (setting [1]), in the experiment with lipoamide (arsenate co-treatment: none) and in the experiment with potassium arsenate were 0.69, 1.25 and 0.345, respectively.
SLC35B2 (UniProt Q8TB61): the thermal stability z-score was -0.113 with lipoamide (setting [1]), -0.134 in the experiment with lipoamide (arsenate co-treatment: none) and 0.579 with potassium arsenate.
On the same counts, the results for SLC35D1 (UniProt Q9NTN3) are -2.29, -2.36 and -1.34.
On the same counts, the results for SLC35E1 (UniProt Q96K37) are -2.03, -1.92 and -1.27.
SLC35F6 (UniProt Q8N357): the thermal stability z-score with lipoamide (setting [1]) was -0.707; with lipoamide (arsenate co-treatment: none) it was -0.328; in the experiment with potassium arsenate, -0.279.
Regarding SLC37A4 (UniProt O43826), the thermal stability z-score with lipoamide (setting [1]) is 1.26; with lipoamide (arsenate co-treatment: none), -0.205; in the experiment with potassium arsenate, -0.212.
As for SLC38A1 (UniProt Q9H2H9), the figures for the thermal stability z-score with lipoamide (setting [1]), in the experiment with lipoamide (arsenate co-treatment: none) and in the experiment with potassium arsenate were 0.457, 0.549 and 1.25, respectively.
With SLC38A2 (UniProt Q96QD8), the results for the thermal stability z-score in the experiment with lipoamide (setting [1]), with lipoamide (arsenate co-treatment: none) and in the experiment with potassium arsenate were 0.351, 0.272 and 0.774, respectively.
